Reference: US10131652B2, “Pyrimidinyloxy benzene derivatives as herbicides” (E. I. DU PONT DE NEMOURS AND COMPANY, priority 2014, dated 2018)

How the values were obtained:
Format in all cases: in vivo
corn (Zea mays) = experiment: Test B pre-/postemergence plant response
Method in brief: (§1)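 Steps: plant seeds in loam soil–sand mix; spray soil preemergence, and in parallel spray 2–10 cm one- to two-leaf plants postemergence; hold ~10 days in greenhouse; visually rate injury against untreated controls (0 = no effect, 100 = complete control).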

[1] = system: barnyardgrass (Echinochloa crus-galli); experiment: Test B pre-/postemergence plant response
Method in brief: as §1

[2] = system: wheat (Triticum aestivum); experiment: Test B pre-/postemergence plant response
Method in brief: as §1

[3] = system: giant foxtail (Setaria faberii); experiment: Test B pre-/postemergence plant response
Method in brief: as §1

[4] = system: Italian ryegrass (Lolium multiflorum); experiment: Test B pre-/postemergence plant response
Method in brief: as §1

kochia (Kochia scoparia) = experiment: Test B pre-/postemergence plant response
Method in brief: as §1

[5] = system: ragweed (common ragweed, Ambrosia elatior); experiment: Test B pre-/postemergence plant response
Method in brief: as §1

[6] = system: pigweed (Amaranthus retroflexus); experiment: Test B pre-/postemergence plant response
Method in brief: as §1

[7] = system: small-flower umbrella sedge (Cyperus difformis); experiment: Test C flooded paddy test plant response; conditions: Flood, 250 g ai/ha; scale of 0 to 100 where 0 is no effect and 100 is complete control; 13 to 15 days
Method in brief: (§2)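 Greenhouse paddy assay, 13–15 days. Treatment into 3 cm floodwater over 2-leaf plants; visual 0–100 rating against controls.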

[8] = system: ducksalad (Heteranthera limosa); experiment: Test C flooded paddy test plant response; conditions: Flood, 250 g ai/ha; scale of 0 to 100 where 0 is no effect and 100 is complete control; 13 to 15 days
Method in brief: as §2

[9] = system: barnyardgrass (Echinochloa crus-galli); experiment: Test C flooded paddy test plant response; conditions: Flood, 250 g ai/ha; scale of 0 to 100 where 0 is no effect and 100 is complete control; 13 to 15 days
Method in brief: as §2

rice (Oryza sativa) = experiment: Test C flooded paddy test plant response; conditions: Flood, 250 g ai/ha; scale of 0 to 100 where 0 is no effect and 100 is complete control; 13 to 15 days
Method in brief: as §2

[10] = system: galium (catchweed bedstraw, Galium aparine); experiment: Test B postemergence plant response
Method in brief: (§3)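 Visual injury rating, 0–100 (0 = no effect, 100 = complete control), vs untreated controls ~10 days after postemergence spray; greenhouse; potted loam soil/sand; plants 2–10 cm, 1–2 leaf stage.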

[11] = system: blackgrass (Alopecurus myosuroides); experiment: Test B postemergence plant response
Method in brief: as §3

[12] = 125 g ai/ha, postemergence, 0 to 100 scale, 0 no effect, 100 complete control
[13] = Postemergence, 31 g ai/ha, 0 to 100 scale (0 no effect, 100 complete control)
[14] = 31 g ai/ha, Preemergence, 0 to 100 scale where 0 is no effect and 100 is complete control
[15] = Preemergence, 125 g ai/ha, 0 to 100 scale (0 no effect, 100 complete control)
[16] = 31 g ai/ha, Postemergence, 0 to 100 scale, 0 no effect, 100 complete control
[17] = Preemergence, 31 g ai/ha, 0 to 100 scale (0 no effect, 100 complete control)
[18] = Preemergence, 125 g ai/ha, 0 to 100 scale where 0 is no effect and 100 is complete control
[19] = 500 g ai/ha, postemergence, 0 to 100 scale, 0 no effect, 100 complete control
[20] = Preemergence, 500 g ai/ha, 0 to 100 scale where 0 is no effect and 100 is complete control

Clc1cnc(Oc2ccccc2-c2ccns2)nc1 [Compound 233]
20: Plant response rating, Pigweed [6, 12]
10: Plant response rating, Corn (corn (Zea mays); [12]) | Plant response rating, Barnyardgrass [1, 12] | Plant response rating, Blackgrass [11, 12]
0: Plant response rating, Corn (corn (Zea mays); [13]) | Plant response rating, Barnyardgrass [1, 14] | Plant response rating, Barnyardgrass [1, 13] | Barnyardgrass plant response rating [1, 15] | Plant response rating, Wheat [2, 12] | Plant response rating, Wheat [2, 13] | Plant response rating, Foxtail, Giant [3, 14] | Plant response rating, Foxtail, Giant [3, 12] | Plant response rating, Foxtail, Giant [3, 13] | Foxtail, Giant plant response rating [3, 15] | Plant response rating, Ryegrass, Italian [4, 14] | Plant response rating, Ryegrass, Italian [4, 12] | Plant response rating, Ryegrass, Italian [4, 13] | Ryegrass, Italian plant response rating [4, 15] | Plant response rating, Kochia (kochia (Kochia scoparia); [14]) | Plant response rating, Kochia (kochia (Kochia scoparia); [12]) | Plant response rating, Kochia (kochia (Kochia scoparia); [13]) | Kochia plant response rating (kochia (Kochia scoparia); [15]) | Plant response rating, Ragweed [5, 14] | Plant response rating, Ragweed [5, 12] | Plant response rating, Ragweed [5, 13] | Ragweed plant response rating [5, 15] | Plant response rating, Pigweed [6, 14] | Plant response rating, Pigweed [6, 13] | Pigweed plant response rating [6, 15] | Sedge, Umbrella plant response rating [7] | Ducksalad plant response rating [8] | Barnyardgrass plant response rating [9] | Rice plant response rating (rice (Oryza sativa)) | Plant response rating, Galium [10, 12] | Plant response rating, Galium [10, 13] | Plant response rating, Blackgrass [11, 13]

Fc1cc(F)c(-c2cc(C(F)F)no2)c(Oc2ncc(Cl)cn2)c1 [Compound 107]
0: Plant response rating, Corn (corn (Zea mays); [16]) | Plant response rating, Corn (corn (Zea mays); [12]) | Plant response rating, Barnyardgrass [1, 16] | Plant response rating, Barnyardgrass [1, 12] | Barnyardgrass plant response rating [1, 17] | Plant response rating, Barnyardgrass [1, 18] | Plant response rating, Wheat [2, 16] | Plant response rating, Wheat [2, 12] | Plant response rating, Foxtail, Giant [3, 16] | Plant response rating, Foxtail, Giant [3, 12] | Foxtail, Giant plant response rating [3, 17] | Plant response rating, Foxtail, Giant [3, 18] | Plant response rating, Ryegrass, Italian [4, 16] | Plant response rating, Ryegrass, Italian [4, 12] | Ryegrass, Italian plant response rating [4, 17] | Plant response rating, Ryegrass, Italian [4, 18] | Plant response rating, Kochia (kochia (Kochia scoparia); [16]) | Plant response rating, Kochia (kochia (Kochia scoparia); [12]) | Kochia plant response rating (kochia (Kochia scoparia); [17]) | Plant response rating, Kochia (kochia (Kochia scoparia); [18]) | Plant response rating, Ragweed [5, 16] | Plant response rating, Ragweed [5, 12] | Ragweed plant response rating [5, 17] | Plant response rating, Ragweed [5, 18] | Plant response rating, Pigweed [6, 16] | Plant response rating, Pigweed [6, 12] | Pigweed plant response rating [6, 17] | Plant response rating, Pigweed [6, 18] | Sedge, Umbrella plant response rating [7] | Ducksalad plant response rating [8] | Barnyardgrass plant response rating [9] | Rice plant response rating (rice (Oryza sativa)) | Plant response rating, Galium [10, 16] | Plant response rating, Galium [10, 12] | Plant response rating, Blackgrass [11, 16] | Plant response rating, Blackgrass [11, 12]

CCOC(OCC)c1cc(-c2ccccc2Oc2ncc(Cl)cn2)on1 [Compound 108]
0: Plant response rating, Corn (corn (Zea mays); [16]) | Plant response rating, Barnyardgrass [1, 16] | Plant response rating, Barnyardgrass [1, 14] | Plant response rating, Barnyardgrass [1, 12] | Plant response rating, Barnyardgrass [1, 18] | Plant response rating, Wheat [2, 16] | Plant response rating, Wheat [2, 12] | Plant response rating, Foxtail, Giant [3, 16] | Plant response rating, Foxtail, Giant [3, 14] | Plant response rating, Foxtail, Giant [3, 12] | Plant response rating, Foxtail, Giant [3, 18] | Plant response rating, Ryegrass, Italian [4, 16] | Plant response rating, Ryegrass, Italian [4, 14] | Plant response rating, Ryegrass, Italian [4, 12] | Plant response rating, Ryegrass, Italian [4, 18] | Plant response rating, Kochia (kochia (Kochia scoparia); [16]) | Plant response rating, Kochia (kochia (Kochia scoparia); [14]) | Plant response rating, Kochia (kochia (Kochia scoparia); [12]) | Plant response rating, Kochia (kochia (Kochia scoparia); [18]) | Plant response rating, Ragweed [5, 16] | Plant response rating, Ragweed [5, 14] | Plant response rating, Ragweed [5, 12] | Plant response rating, Ragweed [5, 18] | Plant response rating, Pigweed [6, 16] | Plant response rating, Pigweed [6, 14] | Plant response rating, Pigweed [6, 12] | Plant response rating, Pigweed [6, 18] | Sedge, Umbrella plant response rating [7] | Ducksalad plant response rating [8] | Barnyardgrass plant response rating [9] | Rice plant response rating (rice (Oryza sativa)) | Plant response rating, Blackgrass [11, 16] | Plant response rating, Blackgrass [11, 12]
10: Plant response rating, Corn (corn (Zea mays); [12])
50: Plant response rating, Galium [10, 12]
30: Plant response rating, Galium [10, 16]

CC(=O)c1cc(-c2ccccc2Oc2ncc(Cl)cn2)no1 [Compound 215]
40: Plant response rating, Corn (corn (Zea mays); [19]) | Barnyardgrass plant response rating [1, 15] | Plant response rating, Blackgrass [11, 19]
20: Plant response rating, Corn (corn (Zea mays); [12]) | Plant response rating, Barnyardgrass [1, 12] | Plant response rating, Wheat [2, 19] | Plant response rating, Foxtail, Giant [3, 12] | Foxtail, Giant plant response rating [3, 15] | Plant response rating, Ragweed [5, 19] | Plant response rating, Pigweed [6, 12] | Pigweed plant response rating [6, 15] | Plant response rating, Galium [10, 12]
80: Plant response rating, Foxtail, Giant [3, 19]
70: Plant response rating, Galium [10, 19]
50: Plant response rating, Ryegrass, Italian [4, 19]
100: Plant response rating, Pigweed [6, 19]
90: Plant response rating, Barnyardgrass [1, 19] | Plant response rating, Barnyardgrass [1, 20] | Plant response rating, Foxtail, Giant [3, 20] | Plant response rating, Pigweed [6, 20]
10: Plant response rating, Kochia (kochia (Kochia scoparia); [19])
0: Plant response rating, Wheat [2, 12] | Plant response rating, Ryegrass, Italian [4, 12] | Ryegrass, Italian plant response rating [4, 15] | Plant response rating, Ryegrass, Italian [4, 20] | Plant response rating, Kochia (kochia (Kochia scoparia); [12]) | Kochia plant response rating (kochia (Kochia scoparia); [15]) | Plant response rating, Kochia (kochia (Kochia scoparia); [20]) | Plant response rating, Ragweed [5, 12] | Ragweed plant response rating [5, 15] | Plant response rating, Ragweed [5, 20] | Sedge, Umbrella plant response rating [7] | Ducksalad plant response rating [8] | Barnyardgrass plant response rating [9] | Rice plant response rating (rice (Oryza sativa)) | Plant response rating, Blackgrass [11, 12]
